Among the test systems are KM12 colon; UACC-257 melanoma; U251 CNS; OVCAR-8 ovarian; BT-549 breast; UACC-62 melanoma; A498 renal; M14 melanoma; SR leukemia; RXF 393 renal; 786-0 renal.
Holding throughout (assay): NCI anticancer screen, dose series, 48 h

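Tested at 5 concentrations; 48 h exposure; 96-well plates; endpoints linearly interpolated, else capped at highest concentration. Definition used: TGI = concentration required for complete inhibition of growth.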

For `O=c1c2c([nH]c3cc4c(cc13)OCO4)-c1ccccc1CCC2`, the TGI with KM12 colon, with UACC-257 melanoma, in the test with U251 CNS, with OVCAR-8 ovarian, in the test on BT-549 breast and with UACC-62 melanoma was over 50 µM throughout. Further, the TGI is over 50 µM with A498 renal; over 50 µM in the test on M14 melanoma; 38.4 µM in the test on SR leukemia; over 50 µM in the test on RXF 393 renal; over 50 µM in the test on 786-0 renal.

`COc1cc2c3c(cc(Cl)nc3c1OC)C(O)(CC(C)=O)C(=O)N2` (configuration not stated): the TGI was over 61.6 µM with KM12 colon; 21.5 µM in the test on UACC-257 melanoma; over 100 µM in the test with U251 CNS; 36.2 µM in the test with OVCAR-8 ovarian; 30.8 µM in the test with BT-549 breast; 31.5 µM in the test on UACC-62 melanoma. Besides, the TGI with A498 renal is 33.2 µM; in the test with M14 melanoma it was 36.5 µM; in the test on SR leukemia, over 66.9 µM; in the test on RXF 393 renal, 30.7 µM; with 786-0 renal, 30.9 µM.

For the molecule `N=C1N=C(N)c2cc3c(cc21)SCCSCCCSCCS3`, the TGI was 26.7 µM in the test on KM12 colon; 44 µM with UACC-257 melanoma; over 50.7 µM in the test on U251 CNS; 41.3 µM in the test on OVCAR-8 ovarian; 31.4 µM in the test with BT-549 breast; over 54.7 µM in the test with UACC-62 melanoma. The TGI is over 69.6 µM in the test on A498 renal; 35.7 µM in the test on M14 melanoma; 37.6 µM with SR leukemia; 41.3 µM in the test on RXF 393 renal; 32.6 µM in the test with 786-0 renal.

Take `c1ccc(C(CCN2CCCC2)c2ccccn2)cc1` (configuration not stated): the TGI in the test on KM12 colon, with UACC-257 melanoma, in the test with U251 CNS, with OVCAR-8 ovarian, with BT-549 breast and with UACC-62 melanoma was over 100 µM throughout. In addition, the TGI in the test on A498 renal, with M14 melanoma, in the test with SR leukemia, in the test with RXF 393 renal and in the test on 786-0 renal was over 100 µM each time.

As to `Cc1ccnc(NC(=S)Nc2ccccc2Cl)c1`, the TGI in the test with KM12 colon, with UACC-257 melanoma, in the test on U251 CNS, in the test with OVCAR-8 ovarian, in the test with BT-549 breast and in the test on UACC-62 melanoma was over 100 µM each time. Further, the TGI with A498 renal, with M14 melanoma, in the test on SR leukemia, in the test with RXF 393 renal and in the test on 786-0 renal was over 100 µM each time.

Consider `CC(=O)c1ccc2c(c1)oc(=O)n2CCN(C)C`, for which the TGI in the test on KM12 colon, in the test with UACC-257 melanoma, in the test with U251 CNS, in the test with OVCAR-8 ovarian, in the test on BT-549 breast and with UACC-62 melanoma was over 100 µM throughout. For the same molecule, the TGI in the test with A498 renal, in the test with M14 melanoma, with SR leukemia, in the test with RXF 393 renal and in the test with 786-0 renal was over 100 µM throughout.

As to `CC(=O)Oc1ccc(OC(Oc2ccccc2)c2ccccc2)cc1` (configuration not stated), the TGI was 58.7 µM in the test on KM12 colon; 64.5 µM with UACC-257 melanoma; 35.5 µM with U251 CNS; over 100 µM in the test on OVCAR-8 ovarian; 68 µM with BT-549 breast; 44.6 µM with UACC-62 melanoma. In addition, the TGI in the test on A498 renal was 43.5 µM; in the test with M14 melanoma, 32.1 µM; in the test on SR leukemia, 54.5 µM; in the test with RXF 393 renal, 57.1 µM; in the test on 786-0 renal, 57.8 µM.

In the case of `CCN(CC)C(=S)SNCCc1ccc(S(N)(=O)=O)cc1`, the TGI in the test with KM12 colon is 37.6 µM; with UACC-257 melanoma it was 32.9 µM; in the test with U251 CNS, 31.8 µM; in the test with OVCAR-8 ovarian, 25.2 µM; in the test on BT-549 breast it was 30 µM; in the test on UACC-62 melanoma, over 94.1 µM. Besides, the TGI is over 65.1 µM in the test with A498 renal; 23.1 µM in the test with M14 melanoma; over 49.4 µM in the test on SR leukemia; 22.1 µM with RXF 393 renal; 27.8 µM with 786-0 renal.

Consider `O=C1C=CC2(O[C@@H](Cc3ccccc3)[C@H](Cc3ccccc3)O2)C(SC(=O)c2ccccc2)C1` (some centres not stated), for which the TGI was determined as 6.82 µM with KM12 colon; 2.55 µM in the test on UACC-257 melanoma; 2.56 µM with U251 CNS; 0.549 µM in the test with OVCAR-8 ovarian; 1.11 µM in the test on BT-549 breast; 5.04 µM in the test with UACC-62 melanoma. Also, the TGI in the test on A498 renal came out at 16.2 µM; with M14 melanoma, 2.99 µM; in the test on SR leukemia, 0.807 µM; with RXF 393 renal it was 0.325 µM; with 786-0 renal it was 0.399 µM.

On to `COCC(=O)[C@]1(O)Cc2c(O)c3c(c(O)c2[C@@H](OC2CC(N)C(O)C(C)O2)C1)C(=O)c1c(OC)cccc1C3=O` (some centres not stated), for which the TGI in the test with KM12 colon is 0.357 µM; in the test with UACC-257 melanoma, 1.48 µM; with U251 CNS, 1.27 µM; with OVCAR-8 ovarian it was 3.95 µM; in the test on BT-549 breast it was 1.99 µM; with UACC-62 melanoma, 0.255 µM. The TGI in the test with A498 renal was determined as 0.624 µM; in the test on M14 melanoma, 0.275 µM; in the test with SR leukemia, 0.159 µM; with RXF 393 renal it was 0.267 µM; with 786-0 renal, 12.2 µM.

`COC(=O)C1=C(OC(=O)/C(=C/c2ccc(Cl)cc2)c2ccccc2)C(C(=O)OC)[C@@]2(O)[C@@H](C(=O)OC)[C@H](C)C[C@@H]1[C@@H]2C(=O)OC` (some centres not stated): the TGI in the test on KM12 colon, in the test with UACC-257 melanoma, in the test with U251 CNS, with OVCAR-8 ovarian, in the test on BT-549 breast and in the test on UACC-62 melanoma was over 100 µM in each case. Besides, the TGI in the test with A498 renal, with M14 melanoma, in the test on SR leukemia, in the test on RXF 393 renal and with 786-0 renal was over 100 µM each time.

For `O=C(CCc1cc(O)cc(O)c1)NCCc1ccc(O)c(O)c1`, the TGI with KM12 colon, with UACC-257 melanoma, in the test with U251 CNS, in the test with OVCAR-8 ovarian, in the test on BT-549 breast and in the test on UACC-62 melanoma was over 100 µM each time. For the same molecule, the TGI in the test on A498 renal, with M14 melanoma, with SR leukemia, in the test with RXF 393 renal and with 786-0 renal was over 100 µM throughout.

As to `Cc1nnc(N)nc1/C=C\c1cccs1`, the TGI in the test with KM12 colon was 31.5 µM; with UACC-257 melanoma, over 100 µM; in the test with U251 CNS, over 100 µM; in the test on OVCAR-8 ovarian it was 44.5 µM; in the test on BT-549 breast, over 100 µM; in the test on UACC-62 melanoma, 49.4 µM. The TGI in the test on A498 renal was 49.7 µM; with M14 melanoma it was 36.9 µM; in the test on SR leukemia, over 100 µM; with RXF 393 renal it was 40.8 µM; in the test with 786-0 renal it was 52.1 µM.

Take `C1OCN2c3nonc3N3COCN4c5nonc5N1C2C43` (configuration not stated): the TGI with KM12 colon, in the test with UACC-257 melanoma, in the test on U251 CNS, with OVCAR-8 ovarian, in the test on BT-549 breast and with UACC-62 melanoma was over 100 µM in each case. Besides, the TGI in the test with A498 renal, in the test with M14 melanoma, in the test with SR leukemia, in the test on RXF 393 renal and in the test on 786-0 renal was over 100 µM in each case.

`Cc1ccc(S(=O)(=O)n2cc(-c3cnc(N)c(Br)n3)c3ccccc32)cc1`: the TGI with KM12 colon was over 40.1 µM; in the test on UACC-257 melanoma it was over 100 µM; with U251 CNS, over 77.5 µM; with OVCAR-8 ovarian, over 100 µM; in the test on BT-549 breast it was over 100 µM; with UACC-62 melanoma it was over 57.2 µM. Also, the TGI with A498 renal is over 24.8 µM; in the test on M14 melanoma, over 55.1 µM; in the test on SR leukemia, 10.2 µM; in the test with RXF 393 renal it was 5.23 µM; in the test with 786-0 renal, over 23.3 µM.

Regarding `CCCCCC(/C=C/[C@@H]1CC(=O)C[C@H]1O[Si](C)(C)C(C)(C)C)OCOCCOC` (some centres not stated), the TGI with KM12 colon came to 8.96 µM; in the test on UACC-257 melanoma it was 11 µM; in the test on U251 CNS, 8.08 µM; in the test with OVCAR-8 ovarian, 18.3 µM; in the test with BT-549 breast, 11.7 µM; in the test on UACC-62 melanoma, 7.64 µM. Moreover, the TGI in the test with A498 renal was determined as 18.1 µM; in the test on M14 melanoma it was 19.5 µM; with SR leukemia it was 6.37 µM; in the test on RXF 393 renal it was 5.45 µM; in the test with 786-0 renal, 14.3 µM.

Turning to `N#CC1N(C(=O)c2ccc(F)cc2)c2ccccc2N1C(=O)c1ccc(F)cc1`, the TGI was over 100 µM with KM12 colon; over 100 µM in the test on UACC-257 melanoma; over 100 µM in the test on U251 CNS; over 100 µM in the test with OVCAR-8 ovarian; 77.3 µM in the test with BT-549 breast; over 100 µM in the test on UACC-62 melanoma. The TGI in the test on A498 renal, in the test with M14 melanoma, with SR leukemia, with RXF 393 renal and with 786-0 renal was over 100 µM throughout.

(Values after PubChem BioAssay (NCI).)
